Assay results reported in patent publication US6737383B1, “Herbicidal oxadiazolidines” (priority 1999, dated 2004).

How the values were obtained:
bedstraw = experiment: Test B pre/postemergence bedstraw; assay type: in vivo, Galium aparine
Method in brief: (§1)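 Herbicidal effect was estimated by eye on a ten-point control scale after plants spent twelve to sixteen days in a greenhouse following soil or foliar treatment. Foliar sprays targeted plants at one to four leaves; all doses were formulated in a non-phytotoxic solvent with surfactant.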

blackgrass = experiment: Test B pre/postemergence blackgrass; assay type: in vivo, Alopecurus myosuroides
Method in brief: as §1

giant foxtail = experiment: Test B pre/postemergence giant foxtail; assay type: in vivo, Setaria faberii
Method in brief: as §1

morningglory = experiment: Test B pre/postemergence morningglory; assay type: in vivo, Ipomoea hederacea
Method in brief: as §1

pigweed = experiment: Test B pre/postemergence pigweed; assay type: in vivo, Amaranthus retroflexus
Method in brief: as §1

rape = experiment: Test B pre/postemergence rape; assay type: in vivo, Brassica napus
Method in brief: as §1

soybean = experiment: Test B pre/postemergence soybean; assay type: in vivo, Glycine max
Method in brief: as §1

sugar beet = experiment: Test B pre/postemergence sugar beet; assay type: in vivo, Beta vulgaris
Method in brief: as §1

velvetleaf = experiment: Test B pre/postemergence velvetleaf; assay type: in vivo, Abutilon theophrasti
Method in brief: as §1

wheat = experiment: Test B pre/postemergence wheat; assay type: in vivo, Triticum aestivum
Method in brief: as §1

wild oat = experiment: Test B pre/postemergence wild oat; assay type: in vivo, Avena fatua
Method in brief: as §1

purple nutsedge = experiment: Test B pre/postemergence purple nutsedge; assay type: in vivo, Cyperus rotundus
Method in brief: as §1

rice = experiment: Test B flood test rice; assay type: in vivo, Oryza sativa
Method in brief: (§2)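 Each value is a visual injury score relative to controls, with 10 meaning complete control and 0 no effect. Evaluation took place twelve to sixteen days after the 2-leaf-stage plants were treated and kept in the greenhouse.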

smallflower flatsedge = experiment: Test B flood test smallflower flatsedge; assay type: in vivo, Cyperus difformis
Method in brief: as §2

duck salad = experiment: Test B flood test duck salad; assay type: in vivo, Heteranthera limosa
Method in brief: as §2

bamyardgrass = experiment: Test B flood test barnyardgrass; assay type: in vivo, Echinochloa crus-galli
Method in brief: as §2

[1] = Preemergence, Rate 62 g/ha, scale of 0 to 10 where 0 is no effect and 10 is complete control
[2] = Preemergence, Rate 250 g/ha, scale of 0 to 10 where 0 is no effect and 10 is complete control
[3] = Preemergence, Rate 500 g/ha, scale of 0 to 10 where 0 is no effect and 10 is complete control
[4] = Rate 62 g/ha, Postemergence, scale of 0 to 10 where 0 is no effect and 10 is complete control
[5] = Rate 125 g/ha, Postemergence, scale 0 to 10
[6] = Rate 125 g/ha, Preemergence, scale of 0 to 10 where 0 is no effect and 10 is complete control
[7] = Rate 500 g/ha, Postemergence, scale 0 to 10, 0 no effect, 10 complete control
[8] = Rate 62 g/ha, headed Pre-emergence (flood test species), scale 0 to 10 (0 no effect, 10 complete control)
[9] = Rate 125 g/ha, Pre-emergence, flood test species, scale 0 to 10 where 0 is no effect and 10 is complete control
[10] = Rate 250 g/ha, Pre-emergence, flood-test species, scale 0 to 10, 0 is no effect, 10 is complete control
[11] = Rate 500 g/ha, Pre-emergence, flood test species, scale 0 to 10 (0 no effect, 10 complete control)

With `CC(C)N(C(=O)n1oc(=O)n([C@H](C)c2ccccc2)c1=O)c1ccc(F)cc1F` [Compound 238] the “Bedstraw plant response rating” value (bedstraw; [1]) was 0, the “Bedstraw plant response rating” value (bedstraw; [2]) was 0 and the “Plant response rating, Bedstraw” value (bedstraw; [3]) was 3. The “Bedstraw plant response rating” value (bedstraw; [4]) was 0, the “Bedstraw plant response rating” value (bedstraw; [5]) was 2 and the “Bedstraw plant response rating” value (bedstraw; [6]) was 0. For the same molecule, the “Plant response rating (0 to 10; 0 is no effect, 10 is complete control), Bedstraw” value (bedstraw; Rate 250 g/ha, Postemergence) was 8, the “Bedstraw plant response rating” value (bedstraw; [7]) was 8 and the “Blackgrass plant response rating” value (blackgrass; [1]) was 0. For the same molecule, the “Blackgrass plant response rating” value (blackgrass; [2]) was 0, the “Plant response rating, Blackgrass” value (blackgrass; [3]) was 0 and the “Blackgrass plant response rating” value (blackgrass; [4]) was 0. The “Blackgrass plant response rating” value (blackgrass; [5]) was 0, the “Blackgrass plant response rating” value (blackgrass; [6]) was 0 and the “Plant response rating (0 to 10; 0 is no effect, 10 is complete control), Blackgrass” value (blackgrass; Rate 250 g/ha, Postemergence) was 0. For the same molecule, the “Blackgrass plant response rating” value (blackgrass; [7]) was 5, the “Giant foxtail plant response rating” value (giant foxtail; [1]) was 5 and the “Giant foxtail plant response rating” value (giant foxtail; [2]) was 10. For the same molecule, the “Plant response rating, Giant foxtail” value (giant foxtail; [3]) was 10, the “Giant foxtail plant response rating” value (giant foxtail; [4]) was 0 and the “Giant foxtail plant response rating” value (giant foxtail; [6]) was 6. The “Plant response rating (0 to 10; 0 is no effect, 10 is complete control), Giant foxtail” value (giant foxtail; Rate 250 g/ha, Postemergence) was 0, the “Giant foxtail plant response rating” value (giant foxtail; [7]) was 2 and the “Morningglory plant response rating” value (morningglory; [1]) was 0. The “Morningglory plant response rating” value (morningglory; [2]) was 0, the “Plant response rating, Morningglory” value (morningglory; [3]) was 3 and the “Morningglory plant response rating” value (morningglory; [4]) was 2. The “Morningglory plant response rating” value (morningglory; [6]) was 0, the “Plant response rating (0 to 10; 0 is no effect, 10 is complete control), Morningglory” value (morningglory; Rate 250 g/ha, Postemergence) was 3 and the “Morningglory plant response rating” value (morningglory; [7]) was 5. The “Redroot pigweed plant response rating” value (pigweed; [1]) was 0, the “Redroot pigweed plant response rating” value (pigweed; [2]) was 0 and the “Plant response rating, Redroot pigweed” value (pigweed; [3]) was 9. For the same molecule, the “Redroot pigweed plant response rating” value (pigweed; [4]) was 0, the “Redroot pigweed plant response rating” value (pigweed; [6]) was 0 and the “Plant response rating (0 to 10; 0 is no effect, 10 is complete control), Redroot pigweed” value (pigweed; Rate 250 g/ha, Postemergence) was 0. For the same molecule, the “Redroot pigweed plant response rating” value (pigweed; [7]) was 5, the “Rape plant response rating” value (rape; [1]) was 0 and the “Rape plant response rating” value (rape; [2]) was 0. For the same molecule, the “Plant response rating, Rape” value (rape; [3]) was 10, the “Rape plant response rating” value (rape; [4]) was 0 and the “Rape plant response rating” value (rape; [6]) was 0. For the same molecule, the “Plant response rating (0 to 10; 0 is no effect, 10 is complete control), Rape” value (rape; Rate 250 g/ha, Postemergence) was 4, the “Rape plant response rating” value (rape; [7]) was 6 and the “Soybean plant response rating” value (soybean; [1]) was 0. The “Soybean plant response rating” value (soybean; [2]) was 0, the “Plant response rating, Soybean” value (soybean; [3]) was 0 and the “Soybean plant response rating” value (soybean; [4]) was 1. For the same molecule, the “Soybean plant response rating” value (soybean; [6]) was 0, the “Soybean plant response rating” value (soybean; [7]) was 2 and the “Sugarbeets plant response rating” value (sugar beet; [1]) was 0. The “Sugarbeets plant response rating” value (sugar beet; [2]) was 3, the “Plant response rating, Sugarbeets” value (sugar beet; [3]) was 6 and the “Sugarbeets plant response rating” value (sugar beet; [4]) was 0. The “Sugarbeets plant response rating” value (sugar beet; [6]) was 0, the “Sugarbeets plant response rating” value (sugar beet; [7]) was 0 and the “Velvetleaf plant response rating” value (velvetleaf; [1]) was 0. For the same molecule, the “Velvetleaf plant response rating” value (velvetleaf; [2]) was 0, the “Plant response rating, Velvetleaf” value (velvetleaf; [3]) was 3 and the “Velvetleaf plant response rating” value (velvetleaf; [4]) was 1. The “Velvetleaf plant response rating” value (velvetleaf; [6]) was 0, the “Velvetleaf plant response rating” value (velvetleaf; [7]) was 2 and the “Wheat plant response rating” value (wheat; [1]) was 0. For the same molecule, the “Wheat plant response rating” value (wheat; [2]) was 0, the “Plant response rating, Wheat” value (wheat; [3]) was 2 and the “Wheat plant response rating” value (wheat; [4]) was 0. The “Wheat plant response rating” value (wheat; [6]) was 0, the “Wheat plant response rating” value (wheat; [7]) was 0 and the “Wild oats plant response rating” value (wild oat; [1]) was 0. The “Wild oats plant response rating” value (wild oat; [2]) was 0, the “Plant response rating, Wild oats” value (wild oat; [3]) was 3 and the “Wild oats plant response rating” value (wild oat; [4]) was 0. For the same molecule, the “Wild oats plant response rating” value (wild oat; [6]) was 0, the “Wild oats plant response rating” value (wild oat; [7]) was 0 and the “Nutsedge plant response rating” value (purple nutsedge; [1]) was 0. The “Nutsedge plant response rating” value (purple nutsedge; [2]) was 0, the “Nutsedge plant response rating” value (purple nutsedge; [4]) was 0 and the “Nutsedge plant response rating” value (purple nutsedge; [6]) was 0. The “Plant response rating (0 to 10; 0 is no effect, 10 is complete control), Nutsedge” value (purple nutsedge; Rate 250 g/ha, Postemergence) was 0, the “Nutsedge plant response rating” value (purple nutsedge; [7]) was 0 and the “Rice plant response rating” value (rice; [8]) was 0. The “Rice plant response rating” value (rice; [9]) was 0, the “Rice plant response rating” value (rice; [10]) was 0 and the “Rice plant response rating” value (rice; [11]) was 0. The “S. Flatsedge plant response rating” value (smallflower flatsedge; [8]) was 0, the “S. Flatsedge plant response rating” value (smallflower flatsedge; [9]) was 0 and the “S. Flatsedge plant response rating” value (smallflower flatsedge; [10]) was 0. The “S. Flatsedge plant response rating” value (smallflower flatsedge; [11]) was 0, the “Ducksalad plant response rating” value (duck salad; [8]) was 0 and the “Ducksalad plant response rating” value (duck salad; [9]) was 0. The “Ducksalad plant response rating” value (duck salad; [10]) was 0, the “Ducksalad plant response rating” value (duck salad; [11]) was 0 and the “Barnyardgrass plant response rating” value (bamyardgrass; [8]) was 0. The “Barnyardgrass plant response rating” value (bamyardgrass; [9]) was 0, the “Barnyardgrass plant response rating” value (bamyardgrass; [10]) was 0 and the “Barnyardgrass plant response rating” value (bamyardgrass; [11]) was 0.
